Laboratory results taken from patent US6767561B2, “DNA polymerase inhibitors, mikanolide and dihydromikanolide” (Societe de Conseils de Recherches et d'Applications …, priority 1999, dated 2004).

Assays:
[1] = tested on: HT29 cells; test: Incorporation of tritiated thymidine into the DNA of HT29 cells in exponential growth phase (in vitro); format: cell-based, human; settings: 1 hour treatment
Experimental: (§1) The cell lines DU145 (human prostate cancer cells), HT29 (cancer of the colon) and Mia-PaCa2 (human pancreatic cancer cells) were acquired from the American Tissue Culture Collection (Rockville, Md., USA).
Incorporation of Thymidine Labelled With Tritium into DNA Cells in Exponential Growth Phase (in vitro)
HT29 cells are seeded in 96-well plates (culturPlate-96, Packard; 4000 cells per well) with the medium (DMEM, Gibco BRL complemented with 10% foetal calf serum, Gibco BRL). On day 3, the medium is removed and replaced by medium containing the tritiated thymidine (5′-thymidine TRK.328, 1 mCi, 0.6 μCi/wells, Amersham) with or without the products (range of 100 to 0.19 μg/ml per ½ dilutions). The treatments are carried out for 1 hour. The medium is then removed and the cells are washed twice with 200 μl of PBS (Gibco BRL). The lysis solution (SDS 1.25%; EDTA 5 mM) is added and left for 10 minutes at ambient temperature, then 75 μl of scintillating liquid (microscint® 40, Packard) is added. Reading is carried out using Topcount® (Packard). The results are expressed as a percentage of the inhibition of incorporation of the labelled nucleotide in the sample with respect to the control (100−(DPM of the sample/DPM control)*100).

[2] = tested on: Klenow DNA polymerase enzyme without exonuclease; test: Incorporation of cytosine labelled with 32P into a DNA in the presence of DNA polymerase in an acellular system; format: biochemical; settings: 100 μg/ml, [32P]dCTP incorporation vs control
Experimental: Incorporation of Cytosine Labelled With ^32P into a DNA in the Presence of DNA Polymerase in an Acellular System
Labelling of the DNA is carried out on a DNA fragment which incorporates nucleotides by way of the activity of the DNA polymerase enzyme. From these nucleotides, the dCTP is labelled by radioactive phosphorus (^32P).
Plasmidic DNA (pc DNA 3, invitrogen, Netherlands) is diluted to a concentration of 2 ng in 45 μl of TE solution (10 MM Tris-HCl; pH 8.0; 1 mM EDTA) then denatured by heating at 100° C. for 10 minutes before being replaced directly in ice. The denatured DNA is placed in the tube which contains the buffer solution of dATP, dGTP, dTTP, the Klenow DNA polymerase enzyme without exonuclease and the random primers (Rediprime II random prime labelling system, RPN 1633, RPN 1634, Amersham pharmacia biotech). 2 μl of Redivue [^32P]dCTP ([…] 5′(α-^32P), specific activity 250 μCi, Amersham), is added to start the reaction. The reaction is carried out in the presence or absence of the compound to be tested for 10 minutes at 37° C. or 1 hour at ambient temperature. […] 10 μl is counted into 5 ml of scintillor (Instagel® plus and Packard scintillation counter). The results are expressed as a percentage of the inhibition of incorporation of the labelled nucleotide in the sample with respect to the control (100−(DPM of the sample/DPM control)*100).

[3] = tested on: Mia-Paca2 human tumor cells; test: Cell proliferation test (WST1), Mia-PaCa2; format: cell-based; settings: Mia-Paca2, 96 hours treatment, read-out: Inhibitory concentration IC50
Experimental: as §1
(§2) The cells placed in 80 μl of Dulbecco's modified Eagle medium (Gibco-Brl, Cergy-Pontoise, France) completed with 10% foetal calf serum inactivated by heating (Gibco-Brl, Cergy-Pontoise, France), 50000 units/l of penicillin and 50 mg/l streptomycin (Gibco-Brl, Cergy-Pontoise, France), and 2 mM of glutamine (Gibco-Brl, Cergy-Pontoise, France) were seeded on a 96-well plate on day 0. The cells were treated on day 1 for 96 hours with increasing concentrations of each of the compounds to be tested at 50 μg/ml. At the end of this period, quantification of cell proliferation is evaluated by a colorimetric test based on the cleavage of the tetrazolium salt WST1 by mitochondrial dehydrogenases in viable cells leading to the formation of formazan (Boehringer Mannheim, Meylan, France). These tests are carried out in duplicate with 8 determinations per concentration tested. For each compound to be tested, the values included in the linear part of the sigmoid were retained for linear regression analysis and used to estimate the inhibitory concentration IC50. The products are solubilized in dimethylsulphoxide (DMSO) at 10^−2 M and finally used in culture with 0.5% DMSO.

[4] = tested on: DU145 human tumor cells; test: Cell proliferation test (WST1), DU145; format: cell-based; settings: DU-145, 96 hours treatment, read-out: Inhibitory concentration IC50
Experimental: as §1, §2

Row | Compound | Remaining thymidine incorporation (dpm sample/dpm control) ([1]; 25 μg/ml) | Remaining thymidine incorporation (dpm sample/dpm control) ([1]; 50 μg/ml) | Remaining thymidine incorporation (dpm sample/dpm control) ([1]; 100 μg/ml) | Inhibition of incorporation (%) [2] | IC50 [3] | IC50 [4]
1 | C[C@H]1C(=O)O[C@H]2C[C@]3(C)O[C@H]3[C@@H]3O[C@@H]3C3=C[C@@H](OC3=O)[C@@H]21 [Dihydromikanolide, dihydromikanolide] | 0.58 | 0.29 | 0.19 | 73 (n = 5; standard deviation σ = 7) % |  | 
2 | C=C1C(=O)O[C@H]2C[C@]3(C)O[C@H]3[C@@H]3O[C@@H]3C3=C[C@@H](OC3=O)[C@H]12 [Mikanolide, mikanolide] | 1.04 | 0.61 | 0.53 | 79.6 (n = 3; standard deviation σ = 11.0) % | 3 µM | 15 µM
